Experimental data as given in ChEMBL document CHEMBL3297733, “Discovery and optimization of pyrrolo[1,2-a]pyrazinones leads to novel and selective inhibitors of PIM kinases” (Bioorg Med Chem, 2013).

What was measured:
[1] = target: Proto-oncogene tyrosine-protein kinase receptor Ret (Homo sapiens, UniProt P07949); experiment: Inhibition of RET (unknown origin)
[2] = target: Tyrosine-protein kinase ABL1 (Homo sapiens, UniProt P00519); experiment: Inhibition of Bcr-ABL (unknown origin)
[3] = Cytotoxicity against human KMS11 cells after 72 hrs by CellTitre-Glo assay; type: functional, cell-based; conditions: KMS-11, 72 h
[4] = target: Receptor-type tyrosine-protein kinase FLT3 (Homo sapiens, UniProt P36888); experiment: Inhibition of FLT3 (unknown origin)
[5] = Cytotoxicity against mouse BA/F3 cells overexpressing PIM1 after 72 hrs by CellTitre-Glo assay; type: functional, cell-based; conditions: BaF3, 72 h
[6] = target: Tyrosine-protein kinase JAK2 (Homo sapiens, UniProt O60674); experiment: Inhibition of JAK2 (unknown origin)
[7] = target: Non-receptor tyrosine-protein kinase TYK2 (Homo sapiens, UniProt P29597); experiment: Inhibition of TYK2 (unknown origin)
Chain of Non-receptor tyrosine-protein kinase TYK2 (P29597 whole entry): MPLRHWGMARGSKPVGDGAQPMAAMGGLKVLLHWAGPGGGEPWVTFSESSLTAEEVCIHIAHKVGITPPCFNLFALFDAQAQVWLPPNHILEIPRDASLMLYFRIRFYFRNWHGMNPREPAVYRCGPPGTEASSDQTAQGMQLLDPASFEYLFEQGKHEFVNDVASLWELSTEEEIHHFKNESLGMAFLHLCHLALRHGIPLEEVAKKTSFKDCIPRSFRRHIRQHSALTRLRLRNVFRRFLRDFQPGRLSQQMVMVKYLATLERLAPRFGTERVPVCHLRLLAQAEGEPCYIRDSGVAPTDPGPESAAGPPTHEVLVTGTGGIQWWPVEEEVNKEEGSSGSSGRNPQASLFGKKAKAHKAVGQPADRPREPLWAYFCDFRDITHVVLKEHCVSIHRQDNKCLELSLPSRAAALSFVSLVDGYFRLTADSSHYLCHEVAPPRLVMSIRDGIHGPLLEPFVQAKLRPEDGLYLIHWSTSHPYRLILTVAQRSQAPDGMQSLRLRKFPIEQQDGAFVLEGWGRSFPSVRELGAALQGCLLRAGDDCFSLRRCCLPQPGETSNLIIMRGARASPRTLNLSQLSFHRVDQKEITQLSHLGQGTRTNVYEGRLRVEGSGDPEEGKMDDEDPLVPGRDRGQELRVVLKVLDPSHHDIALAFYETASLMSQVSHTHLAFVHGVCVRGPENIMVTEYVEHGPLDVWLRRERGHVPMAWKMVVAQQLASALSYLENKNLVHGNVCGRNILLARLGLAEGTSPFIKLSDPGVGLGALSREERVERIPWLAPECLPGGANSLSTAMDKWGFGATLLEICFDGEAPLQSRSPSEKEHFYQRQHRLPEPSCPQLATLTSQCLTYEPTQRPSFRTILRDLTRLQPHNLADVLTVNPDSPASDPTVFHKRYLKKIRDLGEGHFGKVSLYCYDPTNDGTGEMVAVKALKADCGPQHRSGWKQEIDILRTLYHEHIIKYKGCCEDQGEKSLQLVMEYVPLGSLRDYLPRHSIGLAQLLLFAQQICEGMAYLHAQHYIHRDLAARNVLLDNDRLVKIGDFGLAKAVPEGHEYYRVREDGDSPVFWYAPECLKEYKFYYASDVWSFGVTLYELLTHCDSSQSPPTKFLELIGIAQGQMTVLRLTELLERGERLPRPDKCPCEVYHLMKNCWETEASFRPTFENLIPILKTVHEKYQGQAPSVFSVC

[8] = target: MAP kinase-activated protein kinase 2 (Homo sapiens, UniProt P49137); experiment: Inhibition of MAPKAPK2 (unknown origin)
[9] = target: Platelet-derived growth factor receptor (Homo sapiens, UniProt P09619+P16234); experiment: Inhibition of PDGFR (unknown origin); type: protein-complex assay
[10] = target: Serine/threonine-protein kinase pim-1 (Mus musculus) (UniProt P06803); experiment: Inhibition of PIM1 in mouse BA/F3 cells assessed as c-Myc degradation after 24 hrs by Western blotting analysis; type: cell-based; conditions: BaF3
Chain of Serine/threonine-protein kinase pim-1 (Mus musculus) (P06803 whole entry, looked up): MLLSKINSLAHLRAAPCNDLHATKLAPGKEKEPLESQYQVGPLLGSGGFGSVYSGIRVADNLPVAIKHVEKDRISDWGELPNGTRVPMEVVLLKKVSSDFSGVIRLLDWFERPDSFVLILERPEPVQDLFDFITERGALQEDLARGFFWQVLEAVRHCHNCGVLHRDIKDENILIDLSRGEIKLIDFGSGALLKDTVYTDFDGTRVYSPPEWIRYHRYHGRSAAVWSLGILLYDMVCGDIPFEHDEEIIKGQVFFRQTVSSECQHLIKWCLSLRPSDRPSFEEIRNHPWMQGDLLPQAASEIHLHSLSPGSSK

[11] = target: Serine/threonine-protein kinase PAK 4 (Homo sapiens, UniProt O96013); experiment: Inhibition of PAK4 (unknown origin)
Chain of Serine/threonine-protein kinase PAK 4 (O96013 whole entry): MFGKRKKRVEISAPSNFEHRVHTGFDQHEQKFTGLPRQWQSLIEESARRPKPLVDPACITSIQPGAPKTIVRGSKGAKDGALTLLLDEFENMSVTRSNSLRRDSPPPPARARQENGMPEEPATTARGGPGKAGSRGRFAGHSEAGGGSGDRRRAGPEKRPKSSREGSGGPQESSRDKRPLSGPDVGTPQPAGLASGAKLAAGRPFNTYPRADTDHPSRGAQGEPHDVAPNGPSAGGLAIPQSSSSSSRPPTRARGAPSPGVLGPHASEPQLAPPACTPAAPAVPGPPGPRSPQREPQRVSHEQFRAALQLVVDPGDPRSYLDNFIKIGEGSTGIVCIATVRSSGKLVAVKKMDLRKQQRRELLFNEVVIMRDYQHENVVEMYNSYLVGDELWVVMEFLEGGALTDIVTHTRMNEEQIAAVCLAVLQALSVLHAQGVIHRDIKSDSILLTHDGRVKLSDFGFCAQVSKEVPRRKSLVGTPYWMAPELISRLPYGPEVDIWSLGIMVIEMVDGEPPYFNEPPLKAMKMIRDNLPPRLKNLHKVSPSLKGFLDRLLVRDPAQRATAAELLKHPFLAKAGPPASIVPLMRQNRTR

Cytochrome P450 3A4 = Cytochrome P450 3A4 (Homo sapiens, UniProt P08684); experiment: Inhibition of CYP3A4 (unknown origin); type: ADME
Chain of Cytochrome P450 3A4 (P08684 whole entry): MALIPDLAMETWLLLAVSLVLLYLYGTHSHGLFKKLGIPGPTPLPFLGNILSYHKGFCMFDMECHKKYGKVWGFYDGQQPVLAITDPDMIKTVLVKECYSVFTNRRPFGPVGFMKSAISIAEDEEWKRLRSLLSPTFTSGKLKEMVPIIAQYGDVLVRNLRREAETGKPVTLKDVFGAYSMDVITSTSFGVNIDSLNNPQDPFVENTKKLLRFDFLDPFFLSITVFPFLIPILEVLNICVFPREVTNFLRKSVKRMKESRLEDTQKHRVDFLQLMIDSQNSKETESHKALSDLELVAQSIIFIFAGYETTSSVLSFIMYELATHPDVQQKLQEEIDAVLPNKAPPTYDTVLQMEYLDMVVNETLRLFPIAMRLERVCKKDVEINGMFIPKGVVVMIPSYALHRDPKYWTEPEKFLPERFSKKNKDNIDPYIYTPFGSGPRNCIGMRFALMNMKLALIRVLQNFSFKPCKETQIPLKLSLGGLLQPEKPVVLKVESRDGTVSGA

[12] = target: Serine/threonine-protein kinase pim-3 (Homo sapiens, UniProt Q86V86); experiment: Inhibition of human PIM3 using ARK-RERTYSFGHHA as substrate incubated for 60 mins prior to substrate addition by topcount scintillation counting analysis in presence of [P33gamma]-ATP
[13] = target: Serine/threonine-protein kinase haspin (Homo sapiens, UniProt Q8TF76); experiment: Inhibition of haspin (unknown origin)
[14] = target: Epidermal growth factor receptor (Homo sapiens, UniProt P00533); experiment: Inhibition of EGFR1 (unknown origin)
[15] = target: Maternal embryonic leucine zipper kinase (Homo sapiens, UniProt Q14680); experiment: Inhibition of MELK (unknown origin)
[16] = target: Eukaryotic translation initiation factor 2-alpha kinase 3 (Homo sapiens, UniProt Q9NZJ5); experiment: Inhibition of PERK (unknown origin)
Chain of Eukaryotic translation initiation factor 2-alpha kinase 3 (Q9NZJ5 whole entry): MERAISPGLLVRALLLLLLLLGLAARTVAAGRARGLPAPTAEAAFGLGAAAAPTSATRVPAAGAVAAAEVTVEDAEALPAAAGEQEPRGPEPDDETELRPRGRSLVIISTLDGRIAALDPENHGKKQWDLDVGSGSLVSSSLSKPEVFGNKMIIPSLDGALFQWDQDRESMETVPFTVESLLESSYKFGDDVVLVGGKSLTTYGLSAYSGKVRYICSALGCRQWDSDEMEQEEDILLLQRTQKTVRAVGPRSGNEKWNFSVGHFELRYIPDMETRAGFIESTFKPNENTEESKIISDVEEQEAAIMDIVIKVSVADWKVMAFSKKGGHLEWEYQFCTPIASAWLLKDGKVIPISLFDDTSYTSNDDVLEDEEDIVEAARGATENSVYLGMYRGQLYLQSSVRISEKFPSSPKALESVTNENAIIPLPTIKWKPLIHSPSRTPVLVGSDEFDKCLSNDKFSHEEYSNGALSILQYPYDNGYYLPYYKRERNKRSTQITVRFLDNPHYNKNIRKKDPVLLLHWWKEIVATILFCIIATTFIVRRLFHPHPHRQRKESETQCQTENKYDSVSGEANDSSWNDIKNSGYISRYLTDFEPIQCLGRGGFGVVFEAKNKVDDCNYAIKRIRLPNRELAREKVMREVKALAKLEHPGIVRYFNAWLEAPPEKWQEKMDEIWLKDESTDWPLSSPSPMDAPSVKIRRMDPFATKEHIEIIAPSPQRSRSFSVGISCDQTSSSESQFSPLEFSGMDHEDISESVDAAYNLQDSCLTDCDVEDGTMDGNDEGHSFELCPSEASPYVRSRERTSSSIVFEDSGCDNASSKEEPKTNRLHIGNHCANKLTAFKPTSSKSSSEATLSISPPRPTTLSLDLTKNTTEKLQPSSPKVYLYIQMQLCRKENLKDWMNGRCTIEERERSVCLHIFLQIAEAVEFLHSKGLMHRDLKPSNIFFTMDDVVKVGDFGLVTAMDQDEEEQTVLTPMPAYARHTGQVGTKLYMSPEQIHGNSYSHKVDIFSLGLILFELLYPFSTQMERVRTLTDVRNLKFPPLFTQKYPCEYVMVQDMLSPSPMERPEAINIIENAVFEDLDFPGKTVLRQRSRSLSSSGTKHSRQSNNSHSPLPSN

[17] = Plasma protein binding in human; type: ADME, cell-free; conditions: read-out: PPB (converted)
[18] = target: Tyrosine-protein kinase ZAP-70 (Homo sapiens, UniProt P43403); experiment: Inhibition of ZAP70 (unknown origin)
Chain of Tyrosine-protein kinase ZAP-70 (P43403 whole entry): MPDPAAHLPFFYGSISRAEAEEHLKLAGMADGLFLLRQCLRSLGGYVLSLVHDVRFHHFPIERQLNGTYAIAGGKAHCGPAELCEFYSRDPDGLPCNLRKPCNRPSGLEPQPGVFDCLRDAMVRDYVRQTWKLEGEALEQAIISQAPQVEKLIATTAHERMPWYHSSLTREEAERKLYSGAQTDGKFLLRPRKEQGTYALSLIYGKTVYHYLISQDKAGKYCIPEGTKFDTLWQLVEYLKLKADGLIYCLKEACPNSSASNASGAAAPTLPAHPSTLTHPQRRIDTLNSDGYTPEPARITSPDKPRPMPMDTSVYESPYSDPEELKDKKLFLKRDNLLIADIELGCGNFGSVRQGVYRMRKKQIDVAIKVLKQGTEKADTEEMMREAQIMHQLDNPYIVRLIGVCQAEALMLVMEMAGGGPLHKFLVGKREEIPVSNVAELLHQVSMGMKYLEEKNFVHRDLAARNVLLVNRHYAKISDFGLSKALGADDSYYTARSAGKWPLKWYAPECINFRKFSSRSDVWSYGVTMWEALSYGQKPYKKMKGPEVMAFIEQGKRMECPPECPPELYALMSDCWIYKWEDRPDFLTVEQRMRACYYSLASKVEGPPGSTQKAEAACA

[19] = target: Mitogen-activated protein kinase 1 (Homo sapiens, UniProt P28482); experiment: Inhibition of ERK2 (unknown origin)
Chain of Mitogen-activated protein kinase 1 (P28482 whole entry): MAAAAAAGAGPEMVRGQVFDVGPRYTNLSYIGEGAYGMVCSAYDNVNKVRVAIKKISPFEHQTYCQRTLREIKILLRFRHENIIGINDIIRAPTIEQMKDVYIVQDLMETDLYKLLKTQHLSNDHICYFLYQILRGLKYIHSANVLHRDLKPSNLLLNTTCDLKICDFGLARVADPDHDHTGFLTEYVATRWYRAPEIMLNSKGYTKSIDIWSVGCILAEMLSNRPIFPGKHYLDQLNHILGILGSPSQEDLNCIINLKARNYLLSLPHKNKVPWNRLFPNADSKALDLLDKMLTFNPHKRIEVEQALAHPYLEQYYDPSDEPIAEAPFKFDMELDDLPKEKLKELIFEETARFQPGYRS

[20] = target: Proto-oncogene tyrosine-protein kinase ROS (Homo sapiens, UniProt P08922); experiment: Inhibition of ROS1 (unknown origin)
[21] = Half life in BALB/c mouse at 8.2 mg/kg, po; type: ADME, organism-based; parameters: dose 8.2 mg/kg, route oral; conditions: in vivo
LNCaP = experiment: Cytotoxicity against human LNCAP cells after 72 hrs by CellTitre-Glo assay; type: functional, cell-based
[22] = Inhibition of PKA-alpha (unknown origin); parameters: species or system Homo sapiens
[23] = target: Eukaryotic elongation factor 2 kinase (Homo sapiens, UniProt O00418); experiment: Inhibition of EEF2K (unknown origin)
[24] = Intrinsic clearance in dog hepatocytes; type: ADME, cell-based, Canis lupus familiaris, Hepatocyte; conditions: read-out: CLH
[25] = target: CDC7/DBF4 (Cell division cycle 7-related protein kinase/Activator of S phase kinase) (Homo sapiens, UniProt O00311); experiment: Inhibition of CDC7/DBF4 (unknown origin); type: protein-complex assay
[26] = Intrinsic clearance in rat hepatocytes; type: ADME, cell-based, Hepatocyte; conditions: read-out: CLH
[27] = Clearance in BALB/c mouse at 8.2 mg/kg, iv; type: ADME, organism-based; parameters: dose 8.2 mg/kg, route intravenous; conditions: in vivo
MV4-11 = experiment: Cytotoxicity against human MV4-11 cells after 72 hrs by CellTitre-Glo assay; type: functional, cell-based; conditions: MV4-11, 72 h
[28] = Cytotoxicity against human Capan1 cells after 72 hrs by CellTitre-Glo assay; type: functional, cell-based; conditions: CAPAN-1, 72 h
[29] = Intrinsic clearance in mouse hepatocytes; type: ADME, cell-based, Hepatocyte; conditions: read-out: CLH
[30] = Inhibition of SULU1 (unknown origin); parameters: species or system Homo sapiens
[31] = AUC in BALB/c mouse at 8.2 mg/kg, po; type: ADME, organism-based; parameters: dose 8.2 mg/kg, route oral; conditions: plasma

With `CN1CCN(C[C@@H](NC(=O)C[C@H]2CNC(=O)c3cc(-c4cccc(Cl)c4)cn32)C2CCCCC2)CC1` the IC50 [1] was over 10 µM, the IC50 [2] was over 10 µM and the IC50 [3] was 7.13 µM. It also gave an IC50 [4] of over 10 µM, an IC50 [5] of 0.125 µM and an IC50 [6] of over 10 µM. The IC50 [7] was over 10 µM, the IC50 [8] was over 10 µM and the IC50 [9] was over 10 µM. The inhibition [10] was “Dose-dependent effect”, the IC50 [11] was over 10 µM and the IC50 (Cytochrome P450 3A4) was over 10 µM. It also gave an IC50 [12] of 0.012 µM, an IC50 [13] of over 10 µM and an IC50 [14] of over 10 µM. It also gave an IC50 [15] of over 10 µM, an IC50 [16] of over 10 µM and a fraction unbound [17] of 0.03. For the same molecule, the IC50 [18] was over 10 µM, the IC50 [19] was over 10 µM and the IC50 [20] was over 10 µM. It also gave a half-life [21] of 1.25 h, an IC50 (LNCaP) of 3.31 µM and an IC50 [22] of over 10 µM. It also gave an IC50 [23] of over 10 µM, a CLint scaled [24] of 11 mL/min/kg and an IC50 [25] of over 10 µM. It also gave a CLint scaled [26] of 21 mL/min/kg, a clearance [27] of 28 mL/min/kg and an IC50 (MV4-11) of 1.53 µM. It also gave an IC50 [28] of 3.7 µM, a CLint scaled [29] of 63 mL/min/kg and an IC50 [30] of over 10 µM. For the same molecule, the AUC [31] was 0.05 µM·h.
